# Experimental data as given in US11911386B2, “Methods of treating B-cell proliferative disorder” (BeiGene Switzerland GmbH, priority 2022, dated 2024).
# Like-named read-outs stand apart in the source and are kept apart here.
# [1] = any grade, listed as Zanubrutinib
# [2] = grade ≥3, listed as Zanubrutinib
# [3] = leading to treatment discontinuation
smiles,measurement,setting,value
"C=CC(=O)N1CCC([C@@H]2CCNc3c(C(N)=O)c(-c4ccc(Oc5ccccc5)cc4)nn32)CC1 [zanubrutinib, (S)-7-(1-acryloylpiperidin-4-yl)-2-(4-phenoxyphenyl)-4,5,6,7-tetrahydropyrazolo[1,5-a]pyrimidine-3-carboxamide]",Treatment discontinuation due to adverse events,ITT,16.2%
same,Anemia AESI,any grade,50 (15.4) n (%)
same,Anemia TEAE,any grade,49 (15.1) n (%)
same,Arthralgia TEAE,any grade,47 (14.5) n (%)
same,Atrial fibrillation TEAE,any grade,15 (4.6) n (%)
same,Atrial fibrillation and flutter AESI,any grade,5.2 n (%)
same,COVID-19 TEAE,any grade,23.1 n (%)
same,Contusion TEAE,any grade,44 (13.6) n (%)
same,Cough TEAE,any grade,38 (11.7) n (%)
same,Diarrhea TEAE,any grade,16.0 n (%)
same,Fatigue TEAE,any grade,31 (9.6) n (%)
same,Hemorrhage AESI,any grade,137 (42.3) n (%)
same,Hypertension AESI,any grade,23.5 n (%)
same,Hypertension TEAE,any grade,21.9 n (%)
same,Infections AESI,any grade,71.3 n (%)
same,Major hemorrhage AESI,any grade,12 (3.7) n (%)
same,Muscle spasms TEAE,any grade,10 (3.1) n (%)
same,Neutropenia AESI,any grade,29.3 n (%)
same,Neutropenia TEAE,any grade,22.8 n (%)
same,Opportunistic infection AESI,any grade,7 (2.2%) n (%)
same,Pneumonia TEAE,any grade,34 (10.5) n (%)
same,Pyrexia TEAE,any grade,27 (8.3) n (%)
same,Rash TEAE,any grade,33 (10.2) n (%)
same,Secondary primary malignancies AESI,any grade,40 (12.3) n (%)
same,Skin cancers AESI,any grade,21 (6.5) n (%)
same,Thrombocytopenia AESI,any grade,42 (13.0) n (%)
same,Tumor lysis syndrome AESI,any grade,1 (0.3) n (%)
same,Upper respiratory tract infection TEAE,any grade,21.0 n (%)
same,≥1 AESI,any grade,294 (90.7) n (%)
same,≥1 TEAE,any grade,318 (98.1) n (%)
same,Atrial fibrillation and flutter AESI,[1],17 (5.2) n (%)
same,COVID-19 TEAE,[1],75 (23.1) n (%)
same,Diarrhea TEAE,[1],52 (16.0) n (%)
same,Hypertension AESI,[1],76 (23.5) n (%)
same,Hypertension TEAE,[1],71 (21.9) n (%)
same,Infections AESI,[1],231 (71.3) n (%)
same,Neutropenia AESI,[1],95 (29.3) n (%)
same,Neutropenia TEAE,[1],74 (22.8) n (%)
same,Opportunistic infection AESI,[1],7 (2.2) n (%)
same,Upper respiratory tract infection TEAE,[1],68 (21.0) n (%)
same,Acute coronary syndrome,cardiac AE,1 (0.3)
same,Acute myocardial infarction,cardiac AE,1 (0.3)
same,Angina pectoris,cardiac AE,4 (1.2)
same,Aortic valve incompetence,cardiac AE,0
same,Aortic valve stenosis,cardiac AE,1 (0.3)
same,Arrhythmia,cardiac AE,1 (0.3)
same,Arrhythmia supraventricular,cardiac AE,3 (0.9)
same,Arteriosclerosis coronary artery,cardiac AE,1 (0.3)
same,Atrial fibrillation,cardiac AE,15 (4.6)
same,Atrial flutter,cardiac AE,2 (0.6)
same,Atrial tachycardia,cardiac AE,0
same,Atrioventricular block,cardiac AE,0
same,Atrioventricular block first degree,cardiac AE,5 (1.5)
same,Bradyarrhythmia,cardiac AE,1 (0.3)
same,Bradycardia,cardiac AE,0
same,Bundle branch block left,cardiac AE,3 (0.9)
same,Bundle branch block right,cardiac AE,2 (0.6)
same,Cardiac arrest,cardiac AE,0
same,Cardiac discomfort,cardiac AE,0
same,Cardiac disorder,cardiac AE,0
same,Cardiac failure,cardiac AE,5 (1.5)
same,Cardiac failure acute,cardiac AE,0
same,Cardiac failure chronic,cardiac AE,0
same,Cardiac failure congestive,cardiac AE,1 (0.3)
same,Congestive cardiomyopathy,cardiac AE,0
same,Coronary artery disease,cardiac AE,2 (0.6)
same,Coronary artery insufficiency,cardiac AE,1 (0.3)
same,Defect conduction intraventricular,cardiac AE,1 (0.3)
same,Dilatation atrial,cardiac AE,1 (0.3)
same,Extrasystoles,cardiac AE,1 (0.3)
same,Left atrial hypertrophy,cardiac AE,1 (0.3)
same,Left ventricular dysfunction,cardiac AE,1 (0.3)
same,Left ventricular failure,cardiac AE,1 (0.3)
same,Mitral valve incompetence,cardiac AE,1 (0.3)
same,Myocardial fibrosis,cardiac AE,1 (0.3)
same,Myocardial infarction,cardiac AE,1 (0.3)
same,Myocardial ischemia,cardiac AE,3 (0.9)
same,Palpitations,cardiac AE,9 (2.8)
same,Pericardial effusion,cardiac AE,1 (0.3)
same,Sinoatrial block,cardiac AE,1 (0.3)
same,Sinus arrhythmia,cardiac AE,1 (0.3)
same,Sinus bradycardia,cardiac AE,5 (1.5)
same,Sinus node dysfunction,cardiac AE,0
same,Sinus tachycardia,cardiac AE,4 (1.2)
same,Supraventricular extrasystoles,cardiac AE,4 (1.2)
same,Supraventricular tachycardia,cardiac AE,2 (0.6)
same,Tachycardia,cardiac AE,1 (0.3)
same,Ventricular arrhythmia,cardiac AE,2 (0.6)
same,Ventricular extrasystoles,cardiac AE,3 (0.9)
same,Ventricular fibrillation,cardiac AE,0
same,Ventricular hypokinesia,cardiac AE,1 (0.3)
same,Anemia AESI,grade ≥3,7 (2.2) n (%)
same,Atrial fibrillation and flutter AESI,grade ≥3,2.5 n (%)
same,Hemorrhage AESI,grade ≥3,11 (3.4) n (%)
same,Hypertension AESI,grade ≥3,15.1 n (%)
same,Infections AESI,grade ≥3,26.5 n (%)
same,Major hemorrhage AESI,grade ≥3,11 (3.4) n (%)
same,Neutropenia AESI,grade ≥3,68 (21.0) n (%)
same,Opportunistic infection AESI,grade ≥3,5 (1.5) n (%)
same,Secondary primary malignancies AESI,grade ≥3,22 (6.8) n (%)
same,Skin cancers AESI,grade ≥3,7 (2.2) n (%)
same,Thrombocytopenia AESI,grade ≥3,11 (3.4) n (%)
same,Tumor lysis syndrome AESI,grade ≥3,1 (0.3) n (%)
same,≥1 AESI,grade ≥3,186 (57.4) n (%)
same,Atrial fibrillation and flutter AESI,[2],8 (2.5) n (%)
same,Hypertension AESI,[2],49 (15.1) n (%)
same,Infections AESI,[2],86 (26.5) n (%)
same,Anemia,grade ≥3 TEAE,7 (2.2)
same,Atrial fibrillation,grade ≥3 TEAE,6 (1.9)
same,Blood pressure increased,grade ≥3 TEAE,4 (1.2)
same,COVID-19,grade ≥3 TEAE,22 (6.8)
same,COVID-19 pneumonia,grade ≥3 TEAE,23 (7.1)
same,Neutrophil count decreased,grade ≥3 TEAE,17 (5.2)
same,Pneumonia,grade ≥3 TEAE,19 (5.9)
same,Syncope,grade ≥3 TEAE,9 (2.8)
same,Thrombocytopenia,grade ≥3 TEAE,9 (2.8)
same,AEs leading to dose reduction,"human, in vivo",40 (12.3)
same,Bronchopulmonary aspergillosis,"human, in vivo",2 (0.6)
same,COVID-19 TEAE Grade 3 or higher,"human, in vivo",40 (12.3) n (%)
same,Fungal abscess central nervous system,"human, in vivo",1 (0.3)
same,Herpes ophthalmic,"human, in vivo",0
same,Ophthalmic herpes zoster,"human, in vivo",0
same,Osteomyelitis fungal,"human, in vivo",0
same,Pneumonia fungal,"human, in vivo",2 (0.6)
same,Pneumonia legionella,"human, in vivo",0
same,Pulmonary tuberculosis,"human, in vivo",0
same,AEs leading to dose interruption,in vivo,162 (50.0)
same,AEs leading to treatment discontinuation,in vivo,50 (15.4)
same,Deaths due to cardiac events,in vivo,no patient receiving zanubrutinib died due to a cardiac disorder AE
same,Grade ≥3 TEAE,in vivo,218 (67.3)
same,Serious AEs,in vivo,136 (42.0)
same,Atrial fibrillation,[3],0
same,Cardiac arrest,[3],0
same,Cardiac failure,[3],0
same,Cardiac failure acute,[3],0
same,Congestive cardiomyopathy,[3],0
same,Myocardial infarction,[3],0
same,Palpitations,[3],0
same,Ventricular extrasystoles,[3],1 (0.3)
same,Ventricular fibrillation,[3],0
same,Pneumocystis jirovecii pneumonia,opportunistic infection AESI,1 (0.3)
same,Pneumonia cryptococcal,opportunistic infection AESI,1 (0.3)
